Experiments:
global H3K4me2 [1] = conditions: P19 cell line; cited from earlier work
recombinant human LSD1 = recombinant human LSD1 (Homo sapiens, UniProt O60341); experiment: LSD1 demethylase assay, luminol-dependent chemiluminescence (H2O2 production); conditions: read-out: % LSD1 activity remaining, treatment with each analogue at 10 μM
Description: Percent of LSD1 activity remaining was determined following 24-hour treatment with 10 mM of each test compound as determined by the luminol-dependent chemiluminescence method.
The ability of the target (bis)ureas and (bis)thioureas to inhibit LSD1 was determined in an assay procedure utilizing the recombinant human enzyme. Expression and purification of LSD1 were conducted as previously reported. Enzymatic activity of LSD1 in the presence of target compounds was determined using luminol-dependent chemiluminescence to measure the production of H2O2, as previously described. […] Full-length human LSD1 cDNA was subcloned into the pET15b bacterial expression vector (Novagen, Madison, Wis.) in frame with an N-terminal 6×HIS-tag and transformed into the BL21(DE3) strain of Escherichia coli. Following selection, expression and purification of recombinant LSD1 protein were performed as previously described. Briefly, expression of LSD1-HIS protein was induced by 1 mM IPTG for 6 h at 25° C. The HIS-tagged protein was purified using Ni-NTA affinity purification resin and column as recommended by the manufacturer (Qiagen, Valencia, Calif.). Bound protein was eluted by imidazole and the eluate was dialyzed in PBS at 4° C. […] The integral values were calibrated against standards containing known concentrations of H2O2, and the activities expressed as pmols H2O2/mg protein/min. […]

global H3K4me1 = experiment: Global H3K4me1 level by quantitative Western blot in Calu-6 cells; type: cell-based, human; conditions: Calu-6, 10 μM
Description: (§1) FIG. 2. Effect of compounds 25-27 on the expression of global H3K4me1 and H3K4me2. […] Proliferating cell nuclear antigen (PCNA) was used as a loading control. Shown are Western blot images from a single representative experiment performed in triplicate. Relative protein expression levels were determined by quantitative Western analysis using the Odyssey infrared detection system shown as bar graphs. The results represent the mean of three treatments ±SD. The protein expression level for control samples was set to a value of 1.
(§2) The ability of the target (bis)ureas and (bis)thioureas to inhibit LSD1 was determined in an assay procedure utilizing the recombinant human enzyme. Expression and purification of LSD1 were conducted as previously reported. Enzymatic activity of LSD1 in the presence of target compounds was determined using luminol-dependent chemiluminescence to measure the production of H2O2, as previously described. The results of these experiments are summarized in Table 1, and graphically in FIG. 1. […] Subsequent experiments were conducted in the Calu-6 human anaplastic non-small cell lung carcinoma line because it has a highly reproducible response to epigenetic modulation, and because it is known that various tumor suppressor genes are silenced in this line. In order for synthetic analogues to be effective at the cellular level, any observed decreases in cellular LSD1 activity should be accompanied by an increase in global H3K4me1 and H3K4me2 content. […] The reduction in H3K4me2 and corresponding increase in H3K4me1 by 26 at both 24 and 48 hours cannot be readily explained, and is the subject of continuing investigation.
(§3) Cytoplasmic and nuclear fractions were prepared for Western blot analysis using the NE-PER™ Nuclear and Cytoplasmic Extraction Kit (Pierce, Rockford, Ill.). Primary antibodies against H3K4me2 were from Millipore. The pCNA monoclonal antibody was purchased from Oncogene Research Products (Cambridge, Mass.). Dye-conjugated secondary antibodies were used for quantification of Western blot results using the Odyssey Infrared Detection system and software (LI-COR Biosciences, Lincoln, Nebr.).

global H3K4me2 [2] = experiment: Global H3K4me2 level by quantitative Western blot in Calu-6 cells; type: cell-based, human; conditions: Calu-6, 10 μM
Description: as §1, §2, §3

global H3K4me2 [3] = experiment: Global H3K4me2 in HCT116 human colon tumor cells; type: cell-based; conditions: HCT116 human colon tumor cells (data not shown)
SFRP2 mRNA = experiment: Re-expression of SFRP2 mRNA by qPCR in Calu-6 cells; type: cell-based, human; conditions: Calu-6, 24 hours; for dose dependence of SFRP2 expression increase: 5 vs 10 μM
Source text: (§4) The ability of compounds 25-27 to induce the re-expression of aberrantly silenced tumor suppressor genes in vitro was next measured using the Calu-6 human lung carcinoma cell line. The tumor suppressor genes SFRP2 and GATA4 were chosen because they are known to be under expressed in human lung cancer, and because they are thought to play a role in tumorigenesis when silenced. Thus, the genes coding for these proteins are well-documented LSD1 targets. […]. […]. The increase in GATA4 mRNA caused by […] 27 is reproducible, but is not statistically significant (P>0.05).
(§5) RNA was extracted using TRIzol reagents (Invitrogen, Carlsbad, Calif.). First-strand cDNA was synthesized using SuperScript III reverse transcriptase with an oligo(dT) primer (Invitrogen). qPCR was performed using the following primers: SFRP2 sense, 5′AAGCCTGCAAAAATAAAAATGATG; SFRP2 antisense, 5′TGTAAATGGTCTTGCTCTTGGTCT (annealing at 57.4° C.); GATA4 sense, 5′GGCCGCCCGACACCCCAATCT; GATA4 antisense, 5′ ATAGTGACCCGTCCCATCTCG (annealing at 64° C.). qPCR was performed in a MyiQ single color real-time PCR machine (Bio-Rad, Hercules, Calif.) with GAPDH as an internal control.

GATA4 mRNA = experiment: Re-expression of GATA4 mRNA by qPCR in Calu-6 cells; type: cell-based, human; conditions: Calu-6, 24 hours; for effect on GATA4 levels: 5 and 10 μM
Source text: as §4, §5

[4] = target: recombinant LSD1/CoRest complex (Homo sapiens, UniProt O60341); conditions: cited from earlier work

## N[C@@H]1C[C@H]1c1ccccc1 (racemic) [tranylcypromine]
Global H3K4me2 [1]
  global levels of H3K4me2: increase

## S=C(NCCCNCCCNCCCNC(=S)NCCC(c1ccccc1)c1ccccc1)NCCC(c1ccccc1)c1ccccc1 [Compound 20, 1,11-bis-{3-[1-(3,3-diphenylpropyl)thioureado]}-4,8-diazaundecane]
Recombinant human LSD1
  remaining activity at 10 µM: 92.2%

## S=C(NCCCNCCCCCCCNCCCNC(=S)NCC(c1ccccc1)c1ccccc1)NCC(c1ccccc1)c1ccccc1 [Compound 25, 1,15-bis-{3-[1-(2,2-diphenylethyl)thioureado]}-4,12-diazapentadecane]
Global H3K4me1; 24 hours
  global H3K4me1 level: significant increases
Global H3K4me1; 48 hours
  global H3K4me1 level: most dramatic increases
Global H3K4me2 [2]; 24 hours
  global H3K4me2 level: significant increases
Global H3K4me2 [2]; 48 hours
  global H3K4me2 level: most dramatic increases
Global H3K4me2 [3]
  increase in global H3K4me2: 17.4 fold
SFRP2 mRNA
  dose dependence of SFRP2 expression increase: dose dependent
GATA4 mRNA
  effect on GATA4 levels: did not produce significant increases

## S=C(NCCCNCCCCNCCCNC(=S)NCC(c1ccccc1)c1ccccc1)NCC(c1ccccc1)c1ccccc1 [Compound 26, 1,12-bis-{3-[1-(2,2-diphenylethyl)thioureado]}-4,9-diazadodecane]
Global H3K4me1; 24 hours
  global H3K4me1 level: significant increase
Global H3K4me1; 48 hours
  global H3K4me1 level: increase
Global H3K4me2 [2]; 24 hours
  global H3K4me2 level: decreased
Global H3K4me2 [2]; 48 hours
  global H3K4me2 level: reduction
SFRP2 mRNA
  dose dependence of SFRP2 expression increase: same level
GATA4 mRNA
  effect on GATA4 levels: did not produce significant increases

## S=C(NCCCNCCCNCCCNC(=S)NCC(c1ccccc1)c1ccccc1)NCC(c1ccccc1)c1ccccc1 [Compound 27, 1,11-bis-{3-[1-(2,2-diphenylethyl)thioureado]}-4,8-diazaundecane]
Global H3K4me1; 24 hours
  global H3K4me1 level: significant increases
Global H3K4me2 [2]; 24 hours
  global H3K4me2 level: significant increases
SFRP2 mRNA; 10 mM (so in the source)
  increase in SFRP2 expression: 4.8 fold
SFRP2 mRNA
  dose dependence of SFRP2 expression increase: dose dependent
GATA4 mRNA; 5 μM
  effect on GATA4 mRNA: no significant effect
GATA4 mRNA; 10 μM (b97 prints 10 mM)
  increase in GATA4 mRNA: 1.3 fold

## O=C(NCCCNCCCCNCCCNC(=O)NC(=O)N(c1ccccc1)c1ccccc1)NC(=O)N(c1ccccc1)c1ccccc1 [Compound 31, 1,12-bis-{5-[1-(N,N-diphenyl)carbamyl]ureado}-4,9-diazadodecane]
Recombinant human LSD1
  remaining activity at 10 µM: 26.1%

## NNCCc1ccccc1 [phenelzine]
Global H3K4me2 [1]
  global levels of H3K4me2: increase
[4]
  nucleosomal demethylation: inactivate

— patent publication US9708255B2, “(bis)urea and (bis)thiourea compounds as epigenic modulators of lysine-specific demethylase 1 and methods of treating disorders” (priority 2009, dated 2017)
